Patent publication US7737159B2, “Antibacterial compounds” (Abbott Laboratories, priority 2004, dated 2010)

Biological target: bacterial protein synthesis (S30 extract from quinolone-succeptable Streptococcus pneumoniae ATCC 46919)
Assay: Translation assay, firefly luciferase reporter system with S30 Streptococcus pneumoniae extract
Format: biochemical
Conditions: luciferase mRNA, read-out: IC50, concentration causing 50% inhibition of bacterial protein synthesis
Protocol: Bacterial protein synthesis inhibitory activity of representative compounds of this invention having formula (I) and the commercially-available antibacterials in TABLE 2 was determined by translation assays using the firefly luciferase reporter system described by Murray et al., (2001), “Staphylococcus aureus Cell Extract Transcription-Translation Assay: Firefly Luciferase Reporter System for Evaluating Protein Translation Inhibitors,” Antimicrob. Agents Chemother. 45(6): 1900-1904, but replacing the Staphylococcus aureus S30 extract described therein with S30 Streptococcus pneumoniae extract from quinolone-succeptable Streptococcus pneumoniae ATCC 46919, and replacing plasmid coding for the luciferase gene with mRNA (encoding produced by in vitro transcription from the plasmid pAS10rbs3) which encoded the luciferase gene with an upstream Streptococcus pneumoniae promoter and Shine-Dalgarno site.

`CC(=O)NC[C@H]1CN(c2ccc(N3CCOCC3)c(F)c2)C(=O)O1` [Linezolid] gave an IC50 of ~3 µM.
